According to patent US8415469B2, “Compounds and methods for kinase modulation, and indications therefor” (Plexxikon Inc., priority 2005, dated 2013):

Columns and labels:
Format in all cases: biochemical
PDGFRA = PDGFRA (Homo sapiens, UniProt P16234); experiment: AlphaScreen kinase assay, PDGFRA; details: read-out: IC50, activity toward kinase PDGFRA
Procedure, shortened: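 Kinase activity was measured as phosphorylation of a biotinylated peptide, detected with streptavidin donor and phospho-antibody acceptor beads. Compounds, from 20 mM DMSO stocks, were tested at eight concentrations in 1:3 serial dilution.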

Flt3 = molecular target: T1, Flt3 (Homo sapiens, UniProt P36888); experiment: Z'-Lyte FRET kinase assay (Invitrogen), Flt3; details: read-out: IC50, activity toward kinase Flt3
T1 construct: purchased Invitrogen (assay run by Invitrogen)
T1 sequence (P36888 27-993): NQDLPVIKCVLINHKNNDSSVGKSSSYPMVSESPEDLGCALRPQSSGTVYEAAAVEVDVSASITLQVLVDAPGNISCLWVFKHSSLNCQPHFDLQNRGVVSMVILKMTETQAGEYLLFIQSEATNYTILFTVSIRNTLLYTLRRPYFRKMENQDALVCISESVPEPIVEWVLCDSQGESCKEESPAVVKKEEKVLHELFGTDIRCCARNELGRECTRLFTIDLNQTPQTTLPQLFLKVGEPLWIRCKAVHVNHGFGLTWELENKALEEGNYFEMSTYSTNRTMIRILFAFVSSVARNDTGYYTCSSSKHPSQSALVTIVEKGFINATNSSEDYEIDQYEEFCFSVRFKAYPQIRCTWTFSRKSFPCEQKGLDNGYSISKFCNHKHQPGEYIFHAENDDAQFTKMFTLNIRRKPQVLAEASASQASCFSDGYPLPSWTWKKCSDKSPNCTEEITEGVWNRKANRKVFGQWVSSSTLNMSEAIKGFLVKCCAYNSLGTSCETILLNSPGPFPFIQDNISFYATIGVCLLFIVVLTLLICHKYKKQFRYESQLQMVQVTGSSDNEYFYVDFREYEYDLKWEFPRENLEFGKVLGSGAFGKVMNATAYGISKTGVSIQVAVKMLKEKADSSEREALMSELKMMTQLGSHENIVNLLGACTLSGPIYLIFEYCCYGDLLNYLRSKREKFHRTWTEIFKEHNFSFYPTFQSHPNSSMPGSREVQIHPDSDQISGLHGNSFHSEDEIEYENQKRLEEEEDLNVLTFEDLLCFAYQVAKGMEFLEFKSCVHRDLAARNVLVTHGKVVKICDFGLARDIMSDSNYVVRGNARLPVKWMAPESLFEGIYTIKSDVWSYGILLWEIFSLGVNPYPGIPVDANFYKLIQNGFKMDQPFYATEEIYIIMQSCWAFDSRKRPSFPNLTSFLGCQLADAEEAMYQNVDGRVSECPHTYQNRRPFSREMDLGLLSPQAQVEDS
From the text: The effect of potential modulators of kinase activity can be measured in a variety of different assays known in the art. For example, direct radiometric, indirect FRET or AlphaScreen assays may be used to assess the level of phosphorylation of a substrate in the presence of test compounds in order to determine the inhibitory affect of the compound on the kinase. Invitrogen (Carlsbad, Calif.) uses a FRET based assay for Btk, EGFR, EphB2, Flt3, lrak4, Kdr, MAP2K1, MAPKAPK2, PDGFRB, PKC theta, Stk6 and Yes. For these assays, compounds of the invention were screened by Invitrogen using Z′-Lyte™ kinase assay.
Briefly, the Invitrogen kinase assay involves use of a specific peptide substrate optimized for each kinase, containing a fluorophore at each end that make up the FRET pair. The peptide sensitivity to proteolytic cleavage depends on phosphorylation of the peptide. Non-phosphorylated peptide is cleaved by a protease while peptide phosphorylated by the kinase is not cleaved. Cleavage of the peptide disrupts the FRET between the donor (coumarin) and acceptor (fluorescein) fluorophores, resulting in an increase in the ratio of donor emission to acceptor emission. The emission ratio of coumarin to fluorescein is used to assess the reaction progress. The extent of phosphorylation is determined from the emission ratio, which is low when the kinase is active (phosphorylated peptide is not cleaved, FRET pair connected) or higher for inhibited kinase (non-phosphorylated peptide is cleaved, FRET pair separated). Thus, the assay involves a kinase reaction in the presence of varying concentrations of a given compound, a development reaction with site specific protease, and detection of the fluorescent emission ratio of coumarin and fluorscein. […] Reaction conditions for each kinase are determined to provide optimal reaction times, incubation temperature, kinase and ATP concentrations. Test samples are made up in 1× kinase buffer (50 mM HEPES pH 7.5, 50 mM MgCl2, 5 mM EGTA, 0.05% BRIJ-35) and compound at desired concentration prepared in DMSO such that the final DMSO is 1%. […] Typically, assay plates are prepared to 10 μl final volume per sample, adding 2.5 μl of compound at 4× the desired concentration in 4% DMSO (serial dilution of compound provides concentration curve), 5 μl of the desired kinase mixed with Z′-LYTE™ peptide substrate (2× in 2× kinase buffer, final peptide at 2 μM), and 2.5 μl of 4×ATP solution. All kinase except for MAP2K1 were at 10 μM ATP in the kinase reaction, while MAP2K1 was at 100 μM. Samples are mixed and the kinase reaction is incubated 1 hour at room temperature, after which 5 μl of development solution is added and mixed. After incubation for another 1 hour at room temperature, 5 μl of stop reagent is added to each sample and mixed. The fluorescence signals are measured to determine the emission ratio.

IGF1R = IGF1R (Homo sapiens, UniProt P08069); experiment: AlphaScreen kinase assay, IGF1R; details: read-out: IC50, activity toward kinase IGF1R
Sequence of IGF1R (P08069 31-1367): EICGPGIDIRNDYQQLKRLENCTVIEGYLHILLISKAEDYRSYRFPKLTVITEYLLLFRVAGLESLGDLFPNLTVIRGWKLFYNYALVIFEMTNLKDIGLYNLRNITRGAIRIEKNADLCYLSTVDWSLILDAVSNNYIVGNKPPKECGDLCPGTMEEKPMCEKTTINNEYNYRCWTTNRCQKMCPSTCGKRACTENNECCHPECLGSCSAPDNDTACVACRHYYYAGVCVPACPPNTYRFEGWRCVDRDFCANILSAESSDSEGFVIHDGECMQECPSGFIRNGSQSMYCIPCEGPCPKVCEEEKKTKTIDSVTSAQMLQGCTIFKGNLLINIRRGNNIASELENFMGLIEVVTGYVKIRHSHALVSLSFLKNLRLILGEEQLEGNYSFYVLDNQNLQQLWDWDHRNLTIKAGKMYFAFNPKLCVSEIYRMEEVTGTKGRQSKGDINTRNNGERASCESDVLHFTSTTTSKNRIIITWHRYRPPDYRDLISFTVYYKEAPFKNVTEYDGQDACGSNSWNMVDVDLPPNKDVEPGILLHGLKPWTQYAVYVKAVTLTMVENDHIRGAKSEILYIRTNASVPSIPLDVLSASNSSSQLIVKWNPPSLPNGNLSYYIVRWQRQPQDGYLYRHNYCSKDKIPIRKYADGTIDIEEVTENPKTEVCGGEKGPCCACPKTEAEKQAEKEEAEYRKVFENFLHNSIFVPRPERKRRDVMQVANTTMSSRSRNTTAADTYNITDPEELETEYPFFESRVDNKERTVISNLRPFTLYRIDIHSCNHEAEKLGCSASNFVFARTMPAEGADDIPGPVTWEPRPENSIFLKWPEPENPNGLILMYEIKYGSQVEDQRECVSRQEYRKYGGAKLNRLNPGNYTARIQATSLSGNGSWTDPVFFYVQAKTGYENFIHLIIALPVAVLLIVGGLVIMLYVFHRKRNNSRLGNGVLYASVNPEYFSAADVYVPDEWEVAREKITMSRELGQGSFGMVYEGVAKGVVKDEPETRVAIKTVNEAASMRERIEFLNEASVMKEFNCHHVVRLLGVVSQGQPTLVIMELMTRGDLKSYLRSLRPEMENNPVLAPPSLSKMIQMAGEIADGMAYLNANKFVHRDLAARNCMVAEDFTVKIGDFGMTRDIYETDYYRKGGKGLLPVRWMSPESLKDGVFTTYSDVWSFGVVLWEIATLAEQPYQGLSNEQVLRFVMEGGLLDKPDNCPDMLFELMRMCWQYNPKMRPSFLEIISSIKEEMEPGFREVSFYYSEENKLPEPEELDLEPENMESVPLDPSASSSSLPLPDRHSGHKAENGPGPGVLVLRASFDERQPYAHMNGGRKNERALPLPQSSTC
From the text: AlphaScreen assay was used to screen additional kinases. The assay is similarly dependent on the phosphorylation of a peptide substrate. In this assay, an antibody that recognizes phosphorylated substrate is bound to an acceptor bead. The peptide substrate is attached to biotin, which binds to a donor head that contains streptavidin. Thus phosphorylated substrate is bound by antibody and streptavidin, bringing the donor and acceptor heads into close proximity when kinase is not inhibited. The donor produces singlet oxygen which results in emission from the acceptor when they are in close proximity. Conversely, when kinase is inhibited, the donor and acceptor beads are not associated and the emission from the acceptor is reduced.
AlphaScreen assays were done using compounds dissolved in DMSO to a concentration of 20 mM. The compounds were diluted accordingly to the desired final concentrations in each sample well, using 1:3 serial dilution for a total of 8 concentration points. Plates were prepared such that each kinase reaction is 20 μl in 1× kinase buffer, 5% DMSO and 10 μM ATP. After incubation of the kinase reaction for 1 hour at room temperature, 5 μl of donor beads in stop buffer (50 mM EDTA in 1× kinase buffer) was added, the sample was mixed and incubated for 20 minutes at room temperature before adding 5 μl of acceptor beads in stop buffer. The samples were incubated for 60 minutes at room temperature and the signal per well was read on AlphaQuest reader.

Measured: IC50

Sequence of PDGFRA (P16234 24-1089): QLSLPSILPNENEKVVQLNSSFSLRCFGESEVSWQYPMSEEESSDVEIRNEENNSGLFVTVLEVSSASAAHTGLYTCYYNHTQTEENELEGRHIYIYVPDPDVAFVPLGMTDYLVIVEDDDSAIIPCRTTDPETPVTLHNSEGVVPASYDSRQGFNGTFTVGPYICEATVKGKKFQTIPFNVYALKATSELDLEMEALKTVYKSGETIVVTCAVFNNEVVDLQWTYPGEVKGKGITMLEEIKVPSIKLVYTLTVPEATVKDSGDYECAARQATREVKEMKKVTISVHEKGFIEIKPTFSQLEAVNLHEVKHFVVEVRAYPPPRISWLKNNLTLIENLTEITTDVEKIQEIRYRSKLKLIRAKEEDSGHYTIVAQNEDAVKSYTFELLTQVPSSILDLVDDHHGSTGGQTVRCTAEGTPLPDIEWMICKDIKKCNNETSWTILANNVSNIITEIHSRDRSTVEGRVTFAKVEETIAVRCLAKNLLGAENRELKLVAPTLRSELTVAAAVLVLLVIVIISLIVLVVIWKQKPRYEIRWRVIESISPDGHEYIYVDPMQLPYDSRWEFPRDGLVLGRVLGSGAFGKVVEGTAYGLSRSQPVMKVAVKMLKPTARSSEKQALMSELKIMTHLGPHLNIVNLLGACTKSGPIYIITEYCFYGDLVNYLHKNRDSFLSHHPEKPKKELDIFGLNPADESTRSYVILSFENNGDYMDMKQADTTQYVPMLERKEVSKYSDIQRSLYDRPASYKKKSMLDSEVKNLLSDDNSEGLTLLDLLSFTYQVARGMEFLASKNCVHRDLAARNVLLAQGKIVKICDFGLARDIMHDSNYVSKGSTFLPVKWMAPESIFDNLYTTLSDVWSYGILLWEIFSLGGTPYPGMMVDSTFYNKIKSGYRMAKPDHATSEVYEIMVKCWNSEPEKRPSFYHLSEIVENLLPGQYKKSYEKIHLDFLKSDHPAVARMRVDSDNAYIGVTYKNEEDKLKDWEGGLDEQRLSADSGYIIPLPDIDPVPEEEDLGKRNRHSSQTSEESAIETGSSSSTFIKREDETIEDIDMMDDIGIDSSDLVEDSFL

OCCOc1ccc(F)c(Cc2c[nH]c3ncc(-c4cccnc4)cc23)c1F [Compound P-1394, 2-[2,4-Difluoro-3-(5-pyridin-3-yl-1H-pyrrolo[2,3-b]pyridin-3-ylmethyl)-phenoxy]-ethanol]
≤ 10 µM: all assays above
